Data on 9 molecules can be found in patent US5008266A, “4(3H)-quinazolinone derivatives and pharmaceutical compositions” (Nisshin Flour Milling Co., Ltd., priority 1987, dated 1991).

Series [1] concerns indomethacin induced ulcer. Put plainly: antiulcer activity: suppression of indomethacin induced ulcer in mice. Type of series: in vivo, ddY series male mice. The conditions noted are these: for inhibition in vivo at 100 mg/kg: Mus musculus, po, read-out: Suppression rate of indomethacin induced ulcer. On the procedure: The antiulcer activity of the compounds of this invention was determined by the following method. Four-week-old ddY series male mice were used as the test animals after they were fasted for 24 hours. Each test compound suspended in a 1% gum arabic solution was administerd to the stomach of each mouse at a dose of 100 mg/kg, and then, after 30 minutes, 20 mg/kg of indomethacin was administered orally. Four hours after the administration of indomethacin, the stomach of mouse was extirpated and the length of ulcers was measured. Then, the ulcer index was determined by the total sum of the scores as calculated in Table 1. | TABLE 1 |Length of ulcer | 0.5 mm< 1 mm< 2 mm< 3 mm< |Score 0.5 1 2 3 The mean ulcer index of each group was calculated and the suppression rate against the control group in terms of difference in the mean ulcer index was determined.

The nature of series [2]: acute toxicity, LD50 (P.O.). Conditions: in vivo, po.
A short description of a further series: reversion test. Type of series: cell-based.
For series [3] the following is noted: background, cited from earlier work.
Where [4] appears, read: 100 mg/kg, p.o., ddY male mice, indomethacin 20 mg/kg orally 30 minutes later, ulcers measured 4 hours after indomethacin.

Like-named read-outs stand apart in the source and are kept apart here. A value given as a limit tells only on which side of the number the result lay.

In the case of `O=c1c2ccccc2nc(SCc2nc3ccccc3[nH]2)n1-c1ccccc1` [2-(2-Benzimidazolylmethylthio)-3-phenyl-4(3H)-quinazolinone], the inhibition in vivo at 100 mg/kg in series [1] (setting [4]) was 81%.
With `CCN(CC)CCSc1nc2ccccc2c(=O)n1-c1ccccc1` [2-(2-Diethylaminoethylthio)-3-phenyl-4(3H)-quinazolinone], the inhibition in vivo at 100 mg/kg in series [1] (setting [4]) is 45%.
Regarding `COc1ccc(-n2c(SCc3nccc(OC)c3C)nc3ccc(C)cc3c2=O)cc1` [2-[(4-Methoxy-3-methylpyridin-2-yl)methylthio]-3-(4-methoxyphenyl)-6-methyl-4(3H)-quinazolinone], in series [1] (setting [4]), the inhibition in vivo at 100 mg/kg came to 49%.
With `COc1cc(CSc2nc3ccc(C)cc3c(=O)n2-c2ccccc2)ncc1C` [2[(4-Methoxy-5-methylpyridin-2-yl)methylthio]-6-methyl-3-phenyl-4(3H)-quinazolinone], the inhibition in vivo at 100 mg/kg in series [1] (setting [4]) is 44%.
For `CCn1c(SCc2ccccn2)nc2ccccc2c1=O` [3-Ethyl-2-(2-pyridylmethylthio)-4(3H)-quinazolinone], the inhibition in vivo at 100 mg/kg in series [1] (setting [4]) was determined as 96%. In addition, in series [2], the LD50 was greater than 3000 mg/kg. In “reversion test”, the reversion test result is listed as “negative”.
Regarding `O=c1c2ccccc2nc(SCc2ccccn2)n1CCc1ccccc1` [3-Phenethyl-2-(2-pyridylmethylthio)-4(3H)-quinazolinone], in series [1] (setting [4]), the inhibition in vivo at 100 mg/kg is 60%.
Regarding `O=c1c2ccccc2nc(SCc2cccnc2)n1-c1ccccc1` [3-Phenyl-2-(3-pyridylmethylthio)-4(3H)-quinazolinone], the “Suppression rate of indomethacin induced ulcer” value in series [1] (setting [4]) stood at 63.
As to `Cc1ccc2nc(SCc3ccccn3)n(-c3ccccc3)c(=O)c2c1` [6-Methyl-3-phenyl-2-(2-pyridylmethylthio)-4(3H)-quinazolinone], in series [1] (setting [4]), the inhibition in vivo at 100 mg/kg came out at 38%.
On to `CN/C(=N/CCSCc1nc[nH]c1C)NC#N` [Cimetidine], for which the side effects entry in series [3] (known) was “gynecomatism”. The “recurrence of ulcer after suspension of administration” value in series [3] (reported) is “numbers of cases are reported about recurrence of ulcer”. Besides, the inhibition in vivo at 100 mg/kg in series [1] (4 h) is 40%.

A word on the LD50: it is the dose at which mortality reaches 50%. Low readings indicate greater toxicity, high ones lower toxicity.
